Reference: paper PMC9884089 (Journal of Medicinal Chemistry, 2023)
Like-named read-outs stand apart in the source and are kept apart here.

Columns and labels:
PARP10 = biological target: T1, PARP10 (Homo sapiens, UniProt Q53GL7); experiment: Cellular MARylation assay (immunoblot of PARP10 auto-MARylation); format: cell-based; details: 10 μM, 16 h, HeLa cells
T1 construct: made in house
T1 sequence (Q53GL7 1-1025): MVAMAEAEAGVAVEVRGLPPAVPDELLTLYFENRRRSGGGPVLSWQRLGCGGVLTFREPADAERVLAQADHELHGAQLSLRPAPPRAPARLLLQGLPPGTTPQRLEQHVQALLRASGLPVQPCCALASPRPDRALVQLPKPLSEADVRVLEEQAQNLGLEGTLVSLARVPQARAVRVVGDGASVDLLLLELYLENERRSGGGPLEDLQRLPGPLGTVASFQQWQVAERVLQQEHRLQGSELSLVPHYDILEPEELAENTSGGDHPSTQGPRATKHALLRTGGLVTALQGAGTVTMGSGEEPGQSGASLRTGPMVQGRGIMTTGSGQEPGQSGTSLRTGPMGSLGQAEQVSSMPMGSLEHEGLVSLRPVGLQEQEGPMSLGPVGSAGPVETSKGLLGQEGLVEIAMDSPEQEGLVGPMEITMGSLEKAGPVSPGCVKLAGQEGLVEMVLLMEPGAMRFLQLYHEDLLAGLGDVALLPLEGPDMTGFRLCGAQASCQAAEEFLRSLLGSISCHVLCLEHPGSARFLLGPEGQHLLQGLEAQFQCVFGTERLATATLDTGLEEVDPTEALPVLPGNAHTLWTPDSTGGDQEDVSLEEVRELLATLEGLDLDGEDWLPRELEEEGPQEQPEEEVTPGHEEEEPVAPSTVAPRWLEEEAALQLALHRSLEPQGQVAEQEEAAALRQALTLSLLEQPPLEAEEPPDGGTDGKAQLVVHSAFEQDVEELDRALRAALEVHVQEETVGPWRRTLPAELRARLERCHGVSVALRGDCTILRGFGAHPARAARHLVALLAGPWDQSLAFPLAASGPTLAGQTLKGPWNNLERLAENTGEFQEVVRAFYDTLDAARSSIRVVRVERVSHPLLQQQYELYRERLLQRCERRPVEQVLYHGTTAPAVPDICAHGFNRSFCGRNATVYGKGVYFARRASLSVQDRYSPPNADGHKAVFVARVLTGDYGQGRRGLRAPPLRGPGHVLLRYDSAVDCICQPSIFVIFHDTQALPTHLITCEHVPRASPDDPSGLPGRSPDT
Description: Cells were lysed in RIPA lysis buffer [10 mM Tris pH 7.4; 150 mM NaCl; 1% NP-40; 1% desoxycholate; 0,1% SDS; protease inhibitor cocktail (Sigma-Aldrich) and 10 μM olaparib (Selleck Chemicals)], and lysates were analyzed via SDS-PAGE and immunoblotting using specific anti-PARP10 (Eurogentec),[93] anti-MAR/PAR (Cell Signaling, E6F6A, anti-poly/Mono-ADP-ribose antibody), and anti-α-tubulin (B 5-1-2, Sigma-Aldrich) antibodies.

[1] = Thermodynamic water solubility; format: physicochemical; details: distilled water, r.t.
Description: Each solid compound (1 mg) was added to 1 mL of distilled water. Each sample was mixed at r.t. in a shaker water bath 24 h. The resulting suspension was filtered through a 0.45 μm nylon filter (Acrodisc), and the solubilized compound was quantified in triplicate using UV/LC–MS method reported above by comparison with the appropriate calibration curve that was obtained from samples of the compound dissolved in methanol at different concentrations.[94]

Stability in PBS pH 7.4 = format: physicochemical; details: 500 μM
Description: For the stability measurements in polar solvents, each compound was dissolved at room temperature in MeOH or PBS (0.025 M, pH 7.4) up to a final concentration of 500 μM.

[2] = Stability in human plasma; format: in vitro ADME; details: 37 °C
Description: HEPES buffer (0.9 mL, 25 mM, 140 mM NaCl, pH 7.4), and 0.1 mL of each compound in DMSO (2.0 mM). The solution was mixed in a test tube that was incubated at 37 °C. […] The supernatant was removed and analyzed by UV/LC–MS.

[3] = PAMPA, blood brain barrier (BBB) permeability; format: in vitro ADME; details: brain polar lipid; for Papp at 5 h, 500 μM: pH 7.4, 5 h
Description: Each “donor solution” was prepared from a solution of the appropriate compound (DMSO, 1 mM) diluted with phosphate buffer (pH 7.4, 0.025 M) up to a final concentration of 500 μM. […] Donor solution (150 μL) was added to each well of the filter plate and to each well of the acceptor plate was added 300 μL of solution (50% DMSO in phosphate buffer). The sandwich plate was assembled and incubated for 5 h at r.t. After the incubation time, the plates were separated, and the samples were taken from both the donor and acceptor wells, and the amount of compound was measured by UV/LC–MS. All compounds were tested in three independent experiments. […] Drug concentration is estimated by using the peak area integration. Membrane retentions (%) were calculated according to the following equation [drawing 2] where r is the ratio between drug concentration in the acceptor and equilibrium concentration and D, A, and Eq represent drug concentration in the donor, acceptor, and equilibrium solution, respectively.

PARP2 = biological target: T2, PARP2 (Homo sapiens, UniProt Q9UGN5); experiment: biochemical; format: biochemical; details: > = less than 50% inhibition at highest concentration; ≫ = no inhibition; read-out: PARP2 IC50
T2 construct: made in house
Description: Inhibition experiments were performed using a homogenous assay measuring NAD+ consumption.[80]−[82] Reactions were carried out in quadruplicate, and IC50 curves were fitted using sigmoidal dose response curve (four variables) in GraphPad Prism version 8.02. […] Assay conditions for PARP2, TNKS2, PARP10, and PARP15 (Tables 1–3) were recently reported.[44] The conditions for the proximity-enhanced mono-ART assays (Table 4) were also reported recently.[47] PARP6 (400 nM) inhibition was measured using the standard buffer (50 mM sodium phosphate pH 7.0) for the enhanced activity assay using 500 nM NAD^+ and 18 h incubation in r.t..

[4] = read-out: water solubility (log s) (converted)

T2 sequence (Q9UGN5 whole entry): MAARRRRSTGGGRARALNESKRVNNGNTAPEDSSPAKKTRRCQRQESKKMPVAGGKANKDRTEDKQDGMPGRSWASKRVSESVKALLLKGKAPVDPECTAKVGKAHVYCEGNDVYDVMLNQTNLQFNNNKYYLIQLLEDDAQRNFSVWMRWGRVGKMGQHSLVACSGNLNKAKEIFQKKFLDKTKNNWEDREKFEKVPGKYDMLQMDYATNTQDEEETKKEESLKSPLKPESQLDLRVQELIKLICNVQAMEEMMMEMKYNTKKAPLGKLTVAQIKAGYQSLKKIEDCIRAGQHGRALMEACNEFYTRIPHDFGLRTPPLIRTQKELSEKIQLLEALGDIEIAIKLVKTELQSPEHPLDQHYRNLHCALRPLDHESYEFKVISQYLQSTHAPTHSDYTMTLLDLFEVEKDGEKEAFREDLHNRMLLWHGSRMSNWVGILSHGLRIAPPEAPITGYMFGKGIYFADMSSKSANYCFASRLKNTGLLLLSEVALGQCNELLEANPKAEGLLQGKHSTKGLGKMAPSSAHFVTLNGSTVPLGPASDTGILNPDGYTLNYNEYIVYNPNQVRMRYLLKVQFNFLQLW

Structure (SMILES)	inhibition of auto-MARylation of overexpressed PARP10 in cells (PARP10)	solubility at 24 h ([1]; read-out: water solubility)	solubility at 24 h [1, 4]	stab in PBS pH 7.4 (Stability in PBS pH 7.4)	stab in human plasma [2]	BBB RM % (retention membrane percentage) [3]	Papp at 5 h, 500 μM [3]	IC50 (PARP2)
Cc1ccc2c(c1)sc1nnc(N)n12 [Compound 21, 7-Methyl[1,2,4]triazolo[3,4-b][1,3]benzothiazol-3-amine]	effectively inhibited	37.6 µg/mL	184 µM	>24 h	>24 h	5.3%	0.475 ×10⁻⁶ cm/s	–
COc1ccc(OC)c2c1sc1nnc(N)n12 [Compound 27, 5,8-Dimethoxy[1,2,4]triazolo[3,4-b][1,3]benzothiazol-3-amine]	effectively inhibited	12.6 µg/mL	50.4 µM	>24 h	>24 h	3.4%	0.143 ×10⁻⁶ cm/s	10 µM
